Data as given in publication PMC10495264 (Nature Cell Biology, 2023).
“Also recorded” adds a separate entry of the source.

What was measured:
mTORC1 [1] = target: T1, mTORC1 (Homo sapiens, UniProt P42345); test: mTORC1 complex stability/composition, mTOR co-immunoprecipitation of Raptor and mLST8; conditions: 1 mM Mal-CoA added to cell lysates before immunoprecipitation
T1 construct: endogenous mTORC1 complexes were purified from HEK293FT cells; endogenous in cells; host or cells: HEK293FT (immunoprecipitation of endogenous mTOR); the 4E-BP1 substrate was made in E. coli BL21 RP
Description: For the mammalian endogenous protein co-immunoprecipitation experiments, cells of a near-confluent 10-cm dish were lysed in CHAPS IP buffer (50 mM Tris pH 7.5, 0.3% CHAPS detergent, 150 mM NaCl, 50 mM NaF, 2 mM Na-vanadate and 0.011 g ml^−1 β-glycerophosphate) supplemented with 1×PhosSTOP phosphatase inhibitors and 1×EDTA-free cOmplete protease inhibitors (11873580001, Roche) for 10 min on ice. The samples were clarified by centrifugation (20,000g, 15 min, 4 °C) and the supernatants were subjected to immunoprecipitation by the addition of 3 μl of each antibody, incubation at 4 °C with rotation for 3 h, followed by incubation (4 °C with rotation) with 30 μl of a pre-washed Protein A agarose bead slurry (cat. no. 11134515001, Roche) for an additional hour. The beads were then washed four times with CHAPS IP wash buffer (50 mM Tris pH 7.5, 0.3% CHAPS detergent, 150 mM NaCl and 50 mM NaF) and boiled in 1×SDS loading buffer. A portion of the samples was kept aside as the input before the addition of antibodies. The samples were analysed by SDS–PAGE and the presence of co-immunoprecipitated proteins was detected by immunoblotting with the appropriate specific antibodies.
To test whether Mal-CoA influences mTORC1 complex stability/composition, 1 mM Mal-CoA lithium salt solution was added to the lysates before the immunoprecipitation of mTOR, as described earlier. […]

mTORC1 [2] = test: mTORC1 activity in HEK293FT cells (WT and knockout lines), phosphorylation of S6K, 4E-BP1, Grb10, TFEB by immunoblot; format: cell-based, human
Description: Data represent the median fluorescence intensity of OPP Alexa Fluor 488; n = 6 biological replicates from two independent experiments. b,c,e,g,i,k,l, Data are the mean ± s.e.m. *P < 0.05, **P < 0.005, ***P < 0.0005. […] Source numerical data and unprocessed blots are provided. Source data
Amino-acid-starvation experiments were carried out as described before[42],[43]. […] For the lipid depletion experiments, cells were cultured in medium containing 10% charcoal-stripped FBS (A3382101, Thermo Fisher Scientific), instead of full FBS, for 24 h before treatments with FASN inhibitors were performed. For FA supplementation, each FA was first conjugated to 10% FA-free BSA (fraction V; cat. no. 10735086001, Roche) for 1 h at 50 °C in a 50:50 volumetric ratio. The BSA-conjugated C16:0, C16:1, C18:1 and C18:2 FAs (100 μM) were then added to the media both 16 h previous to and at the start of the treatment with FASN inhibitors.
For standard SDS–PAGE and immunoblotting experiments, cells from a well of a 12-well plate were lysed in 250 μl of ice-cold Triton lysis buffer (50 mM Tris pH 7.5, 1% Triton X-100, 150 mM NaCl, 50 mM NaF, 2 mM Na-vanadate and 0.011 g ml^−1 β-glycerophosphate) supplemented with 1×PhosSTOP phosphatase inhibitors (cat. no. 4906837001, Roche) and 1×cOmplete protease inhibitors (cat. no. 11836153001, Roche) for 10 min on ice. The samples were clarified by centrifugation (20,000g, 15 min, 4 °C) and the supernatants were boiled in 1×SDS sample buffer (5×SDS sample buffer: 350 mM Tris–HCl pH 6.8, 30% glycerol, 600 mM DTT, 12.8% SDS and 0.12% bromophenol blue). The band intensities were quantified using the ImageJ software.

SMILES: CC(C)(COP(=O)(O)OP(=O)(O)OCC1OC(n2cnc3c(N)ncnc32)C(O)C1OP(=O)(O)O)C(O)C(=O)NCCC(=O)NCCSC(=O)CC(=O)O (stereo not drawn) [Mal-CoA, malonyl-CoA]
- mTORC1 stability (interaction of mTOR with Raptor and mLST8) (mTORC1 [1]): did not influence
- p-S6K(T389)/S6K, Mean (mTORC1 [2]; ED Fig. 4n, relative to DMSO): 0.5757
- mTORC1 activity after exogenous addition of Mal-CoA (mTORC1 [2]; HEK293FT, 250 μM Mal-CoA in medium, 30 min): significant drop; also recorded: capable of downregulating
